# From the supplement of paper PMC8967900
# Tests used:
# Assay in all cases: selective drug sensitivity score (sDSS, relative to normal bone marrow) (sDSS (score)); higher = more potent and effective on the cell line relative to normal bone marrow cells
# Conditions in all cases: 72 h
# ALL-PO = system: ALL-PO
# SEM cells = system: SEM cells
# COG-LL-394h = system: COG-LL-394h
# PEER = system: PEER
# COG-LL-332h = system: COG-LL-332h
# MHH-CALL-4 = system: MHH-CALL-4
# COG-LL-402h = system: COG-LL-402h
# LC4-1 = system: LC4-1
# HAL-01 = system: HAL-01
# 380 = system: 380
# RCH-ACV = system: RCH-ACV
# COG-LL-317 = system: COG-LL-317
# KARPAS-45 = system: KARPAS-45
# SUP-B15 = system: SUP-B15
# KASUMI-10 = system: KASUMI-10
# NALL-1 = system: NALL-1
# KASUMI-9 = system: KASUMI-9
# MOLT-4 = system: MOLT-4
# TANOUE = system: TANOUE
# P12-ICHIKAWA = system: P12-ICHIKAWA
# 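Also: ALL cell lines in 384-well plates, five doses spanning 10,000-fold, each plate scaled between vehicle and 100 µmol/L benzalkonium chloride controls, sDSS an adapted area-under-curve metric.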
Structure (SMILES),selective drug sensitivity score (ALL-PO),selective drug sensitivity score (SEM cells),selective drug sensitivity score (COG-LL-394h),selective drug sensitivity score (PEER),selective drug sensitivity score (COG-LL-332h),selective drug sensitivity score (MHH-CALL-4),selective drug sensitivity score (COG-LL-402h),selective drug sensitivity score (LC4-1),selective drug sensitivity score (HAL-01),selective drug sensitivity score 380,selective drug sensitivity score (RCH-ACV),selective drug sensitivity score (COG-LL-317),selective drug sensitivity score (KARPAS-45),selective drug sensitivity score (SUP-B15),selective drug sensitivity score (KASUMI-10),selective drug sensitivity score (NALL-1),selective drug sensitivity score (KASUMI-9),selective drug sensitivity score (MOLT-4),selective drug sensitivity score (TANOUE),selective drug sensitivity score (P12-ICHIKAWA)
Nc1ncn([C@H]2C[C@H](O)[C@@H](CO)O2)c(=O)n1 [Decitabine] (top concentration 10000 nM),4.54,1.74,-6.06,2.94,4.34,0.54,3.34,-0.06,-1.76,9.14,10.1,14.9,-6.06,16.5,-3.06,-5.96,-0.16,-0.96,-6.06,1.14
COc1cc([C@@H]2c3cc4c(cc3[C@@H](O[C@@H]3O[C@@H]5CO[C@@H](c6cccs6)O[C@H]5[C@H](O)[C@H]3O)[C@H]3COC(=O)[C@H]23)OCO4)cc(OC)c1O [Teniposide] (top concentration 10000 nM),0,0,0,0,0,0,0.1,0,0,0,0,0,0,0,0,0,0,0,0,0
Nc1nc(F)nc2c1ncn2[C@@H]1O[C@H](CO)[C@@H](O)[C@@H]1O [Fludarabine] (top concentration 10000 nM),1.6,4,-10.6,-9.3,0.6,8.3,8,6,4,6.9,5.9,3.3,-10.3,9.4,-0.8,2.3,6,-1.9,-10.3,-5.5
CCn1c(-c2nonc2N)nc2cnc(Oc3cccc(NC(=O)c4ccc(OCCN5CCOCC5)cc4)c3)cc21 (top concentration 10000 nM),-2.14,9.36,1.56,16.6,11,10.4,7.66,17,9.96,7.46,17.1,7.46,15.2,19.3,-2.74,8.46,11.6,1.86,-5.44,17.1
CC(C)(C#N)c1cc(Cn2cncn2)cc(C(C)(C)C#N)c1 [Anastrozole] (top concentration 10000 nM),0,0,0,0,0,0,0,0,0,0,0,0,0,0,0,0,0,0,0,0
O=C(O)C(=O)O.[NH-][C@@H]1CCCC[C@H]1[NH-].[Pt+2] [Oxaliplatin] (top concentration 100000 nM),-0.78,8.52,8.32,0.62,14.9,12.1,12.9,10.6,15.3,10.6,11.6,17.2,-0.08,16.6,14.2,2.92,13.6,12.4,-6.98,8.32
Oc1nc(-c2ccc(C(F)(F)F)cc2)nc2c1CSCC2 [XAV939] (top concentration 10000 nM),0.06,0.56,0.36,0.96,-0.14,-0.14,0.16,0.56,-0.14,1.96,0.06,-0.14,-0.14,-0.14,-0.14,-0.14,-0.14,-0.14,-0.14,-0.14
Nc1ccn([C@@H]2O[C@H](CO)[C@@H](O)[C@@H]2O)c(=O)n1 [Cytarabine] (top concentration 10000 nM),8.6,15.9,-10,12.2,25.5,5.4,26.9,21,21.8,22.2,28.1,27.2,-7.7,27.7,1.6,10.6,22.7,19,-8.9,24.5
